One block for each compound: values may come before it.
Assays:
[1] = Pharmacokinetics of oral EVL in rats without and with coadministered curcumin; assay type: in vivo; details: for AUC(0-t): male, Sprague-Dawley, rat, whole blood, po, 0.5 mg/kg, AUC0-540, area under the blood concentration-time curve from 0 to 540 min
P-gp = P-gp (Homo sapiens, UniProt P08183); test: P-gp mediated transport of rhodamine 123; assay type: cell-based; details: LS 180 cells, 4-h incubation
CYP3A4 = CYP3A4 (Homo sapiens, UniProt P08684); test: Vivid CYP450 screening kit, recombinant CYP 3A4 activity; assay type: biochemical; details: recombinant CYP3A4 BACULOSOMES, probe Vivid BOMR
[2] = cited from earlier work
[3] = EVL 0.5 mg/kg + curcumin 50 mg/kg
[4] = EVL 0.5 mg/kg + curcumin 100 mg/kg

Sequence of P-gp (P08183 whole entry): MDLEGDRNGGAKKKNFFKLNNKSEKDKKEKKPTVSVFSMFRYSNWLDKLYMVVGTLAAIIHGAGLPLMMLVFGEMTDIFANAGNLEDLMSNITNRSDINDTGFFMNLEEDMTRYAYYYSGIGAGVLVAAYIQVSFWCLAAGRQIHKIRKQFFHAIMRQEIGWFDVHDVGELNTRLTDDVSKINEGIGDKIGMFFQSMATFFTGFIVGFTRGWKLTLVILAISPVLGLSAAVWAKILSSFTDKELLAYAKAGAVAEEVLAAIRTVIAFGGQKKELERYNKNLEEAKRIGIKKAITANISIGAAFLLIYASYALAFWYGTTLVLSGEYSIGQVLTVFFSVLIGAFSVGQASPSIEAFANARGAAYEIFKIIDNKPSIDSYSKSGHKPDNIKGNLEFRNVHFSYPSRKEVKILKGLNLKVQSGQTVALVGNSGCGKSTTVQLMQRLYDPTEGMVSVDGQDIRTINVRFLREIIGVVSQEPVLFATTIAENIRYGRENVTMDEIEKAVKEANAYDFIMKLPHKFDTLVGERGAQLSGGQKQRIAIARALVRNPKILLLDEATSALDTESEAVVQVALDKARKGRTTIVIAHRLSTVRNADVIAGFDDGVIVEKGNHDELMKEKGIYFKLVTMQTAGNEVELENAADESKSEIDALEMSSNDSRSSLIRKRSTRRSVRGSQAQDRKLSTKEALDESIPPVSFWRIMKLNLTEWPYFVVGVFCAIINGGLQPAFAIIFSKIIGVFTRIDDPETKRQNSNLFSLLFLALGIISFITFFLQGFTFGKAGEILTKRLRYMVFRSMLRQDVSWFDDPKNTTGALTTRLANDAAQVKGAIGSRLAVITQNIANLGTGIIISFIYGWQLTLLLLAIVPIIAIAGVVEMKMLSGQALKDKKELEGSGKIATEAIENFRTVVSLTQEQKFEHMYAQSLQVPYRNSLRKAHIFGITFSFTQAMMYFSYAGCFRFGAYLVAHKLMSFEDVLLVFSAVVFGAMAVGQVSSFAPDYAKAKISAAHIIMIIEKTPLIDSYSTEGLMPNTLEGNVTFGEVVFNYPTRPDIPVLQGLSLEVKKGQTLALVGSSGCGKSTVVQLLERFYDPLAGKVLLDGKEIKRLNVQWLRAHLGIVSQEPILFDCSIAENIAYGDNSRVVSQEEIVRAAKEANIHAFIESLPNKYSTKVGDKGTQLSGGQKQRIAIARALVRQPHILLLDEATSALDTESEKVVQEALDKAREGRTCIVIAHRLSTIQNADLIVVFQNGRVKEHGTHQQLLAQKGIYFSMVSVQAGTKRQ
Sequence of CYP3A4 (P08684 whole entry): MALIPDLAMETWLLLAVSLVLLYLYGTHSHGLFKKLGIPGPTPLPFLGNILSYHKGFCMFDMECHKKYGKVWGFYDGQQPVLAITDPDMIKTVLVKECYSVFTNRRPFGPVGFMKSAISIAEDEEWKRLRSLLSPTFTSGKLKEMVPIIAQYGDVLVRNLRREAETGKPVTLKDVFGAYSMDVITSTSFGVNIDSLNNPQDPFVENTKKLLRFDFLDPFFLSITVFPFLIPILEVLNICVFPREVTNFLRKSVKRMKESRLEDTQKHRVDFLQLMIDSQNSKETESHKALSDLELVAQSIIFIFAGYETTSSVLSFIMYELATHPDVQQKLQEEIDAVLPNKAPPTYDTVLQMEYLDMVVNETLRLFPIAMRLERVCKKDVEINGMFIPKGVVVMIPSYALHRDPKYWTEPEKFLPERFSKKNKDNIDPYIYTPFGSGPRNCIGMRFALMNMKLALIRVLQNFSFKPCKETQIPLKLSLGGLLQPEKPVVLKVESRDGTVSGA

Effect on the MRT of EVL by coadministered curcumin ([1]; curcumin 50 mg/kg oral with EVL 0.5 mg/kg): not affected
Decrease of the efflux function of P-gp (rhodamine 123 accumulation) (P-gp; 25 μM): 13.2%
Decrease of the efflux function of P-gp (rhodamine 123 accumulation) (P-gp; 50 μM): 16.7%
Decrease of the efflux function of P-gp (rhodamine 123 accumulation) (P-gp; 100 μM): 172.9%
inhibition at 30 min, 5 µM (CYP3A4): 93%
inhibition at 30 min, 10 µM (CYP3A4): 90%
Structure (SMILES): COc1cc(/C=C/C(=O)CC(=O)/C=C/c2ccc(O)c(OC)c2)ccc1O [curcumin, Diferuloylmethane]

inhibition at 30 min, 5 µM (CYP3A4): 21%
inhibition at 30 min, 10 µM (CYP3A4): 53%
Structure (SMILES): COc1cc(/C=C/C(O)=C/C(=O)/C=C/c2ccc(O)cc2)ccc1O [demethoxycurcumin]

inhibition at 30 min, 0.5 µM (CYP3A4): 10%
inhibition at 30 min, 1 µM (CYP3A4): 10%
Structure (SMILES): O=C(/C=C/c1ccc(O)cc1)CC(=O)/C=C/c1ccc(O)cc1 [bis-demethoxycurcumin]

Change of AUC0-540 versus EVL alone [1, 3]: −70.6%
Change of Cmax versus EVL alone [1, 3]: −76.7%
Change of AUC0-540 versus EVL alone [1, 4]: −71.5%
Change of Cmax versus EVL alone [1, 4]: −76.7%
Change of MRT versus EVL alone [1, 4]: 35.3%
AUC(0-t) ([1]; oral EVL 0.5 mg/kg + curcumin 50 mg/kg): 8.03 ng·h/mL
AUC(0-t) ([1]; oral EVL 0.5 mg/kg + curcumin 100 mg/kg): 7.77 ng·h/mL
AUC(0-t) ([1]; oral EVL 0.5 mg/kg alone): 27.3 ng·h/mL
Structure (SMILES): CO[C@H]1C[C@@H]2CC[C@@H](C)[C@@](O)(O2)C(=O)C(=O)N2CCCC[C@H]2C(=O)O[C@H]([C@H](C)C[C@@H]2CC[C@@H](OCCO)[C@H](OC)C2)CC(=O)[C@H](C)/C=C(\C)[C@@H](O)[C@@H](OC)C(=O)[C@H](C)C[C@H](C)/C=C/C=C/C=C/1C [EVL, Everolimus]
Half-life [2]: 18 to 35 h
Oral bioavailability [2]: 15–16%
Time to peak concentration ([2]; oral): 0.5 to 4.0 h
